Laboratory results reported in the supplement of paper PMC12463676, “Small-molecule dissolution of stress granules by redox modulation benefits ALS models” (Nature Chemical Biology, 2025).
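Also: each temperature applied for 3 min, abundance score taken as mean log2 fold change at the two lowest temperatures, z-score obtained by mean subtraction and division by SD.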

UniProt Q9BTL3, sequence (Q9BTL3 whole entry): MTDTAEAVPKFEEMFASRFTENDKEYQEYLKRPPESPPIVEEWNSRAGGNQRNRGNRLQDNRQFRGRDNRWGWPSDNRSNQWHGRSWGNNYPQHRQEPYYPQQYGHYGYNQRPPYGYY
UniProt Q13191, sequence (Q13191 whole entry): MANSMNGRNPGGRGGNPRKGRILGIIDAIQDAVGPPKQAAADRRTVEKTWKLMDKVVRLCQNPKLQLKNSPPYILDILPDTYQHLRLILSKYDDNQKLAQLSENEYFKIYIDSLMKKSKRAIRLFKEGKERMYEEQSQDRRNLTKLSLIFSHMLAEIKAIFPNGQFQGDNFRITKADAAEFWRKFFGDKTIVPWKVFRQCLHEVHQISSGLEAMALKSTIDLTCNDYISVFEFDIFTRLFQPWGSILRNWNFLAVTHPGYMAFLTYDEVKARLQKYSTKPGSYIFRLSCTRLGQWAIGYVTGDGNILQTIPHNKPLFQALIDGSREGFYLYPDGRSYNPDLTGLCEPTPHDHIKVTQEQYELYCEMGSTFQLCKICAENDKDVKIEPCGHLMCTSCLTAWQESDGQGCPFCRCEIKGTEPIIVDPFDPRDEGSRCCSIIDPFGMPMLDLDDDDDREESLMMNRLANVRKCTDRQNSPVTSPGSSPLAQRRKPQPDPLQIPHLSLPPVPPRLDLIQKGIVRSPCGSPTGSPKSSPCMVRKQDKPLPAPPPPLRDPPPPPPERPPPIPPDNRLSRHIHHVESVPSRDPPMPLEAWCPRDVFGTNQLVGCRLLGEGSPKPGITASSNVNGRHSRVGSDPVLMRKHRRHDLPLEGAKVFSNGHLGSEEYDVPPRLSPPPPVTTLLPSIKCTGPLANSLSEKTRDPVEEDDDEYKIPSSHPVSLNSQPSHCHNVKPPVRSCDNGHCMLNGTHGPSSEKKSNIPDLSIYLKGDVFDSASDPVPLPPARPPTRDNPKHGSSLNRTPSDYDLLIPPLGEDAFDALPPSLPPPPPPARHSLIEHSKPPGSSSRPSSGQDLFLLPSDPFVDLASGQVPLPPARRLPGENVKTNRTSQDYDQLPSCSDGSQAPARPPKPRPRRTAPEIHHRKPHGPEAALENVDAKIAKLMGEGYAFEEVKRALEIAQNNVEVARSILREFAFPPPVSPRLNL
UniProt Q9Y2X9, sequence (Q9Y2X9 whole entry): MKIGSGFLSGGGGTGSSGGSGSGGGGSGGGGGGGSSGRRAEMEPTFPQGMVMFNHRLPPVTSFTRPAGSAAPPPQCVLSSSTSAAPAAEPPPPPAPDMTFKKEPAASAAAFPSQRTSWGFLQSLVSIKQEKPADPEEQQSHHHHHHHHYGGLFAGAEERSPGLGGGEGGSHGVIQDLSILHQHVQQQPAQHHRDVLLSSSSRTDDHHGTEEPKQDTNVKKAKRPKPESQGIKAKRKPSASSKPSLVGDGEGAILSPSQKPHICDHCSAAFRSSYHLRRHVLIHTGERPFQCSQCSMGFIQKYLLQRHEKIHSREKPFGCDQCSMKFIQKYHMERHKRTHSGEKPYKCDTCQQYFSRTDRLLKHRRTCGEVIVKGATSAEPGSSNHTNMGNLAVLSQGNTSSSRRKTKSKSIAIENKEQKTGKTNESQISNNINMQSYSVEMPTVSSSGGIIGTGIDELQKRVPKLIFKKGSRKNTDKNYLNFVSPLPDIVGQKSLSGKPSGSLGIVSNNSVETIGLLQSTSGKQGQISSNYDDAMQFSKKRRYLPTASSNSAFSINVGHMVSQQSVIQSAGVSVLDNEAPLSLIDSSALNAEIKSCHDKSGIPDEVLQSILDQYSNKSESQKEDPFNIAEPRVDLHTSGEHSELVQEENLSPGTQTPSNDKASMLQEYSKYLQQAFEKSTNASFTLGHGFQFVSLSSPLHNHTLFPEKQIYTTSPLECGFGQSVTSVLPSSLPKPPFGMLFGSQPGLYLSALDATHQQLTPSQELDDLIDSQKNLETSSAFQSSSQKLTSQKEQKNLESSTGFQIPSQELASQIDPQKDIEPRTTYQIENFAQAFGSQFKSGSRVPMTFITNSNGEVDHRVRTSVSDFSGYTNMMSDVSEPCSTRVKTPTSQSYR
UniProt Q96E22, sequence (Q96E22 whole entry): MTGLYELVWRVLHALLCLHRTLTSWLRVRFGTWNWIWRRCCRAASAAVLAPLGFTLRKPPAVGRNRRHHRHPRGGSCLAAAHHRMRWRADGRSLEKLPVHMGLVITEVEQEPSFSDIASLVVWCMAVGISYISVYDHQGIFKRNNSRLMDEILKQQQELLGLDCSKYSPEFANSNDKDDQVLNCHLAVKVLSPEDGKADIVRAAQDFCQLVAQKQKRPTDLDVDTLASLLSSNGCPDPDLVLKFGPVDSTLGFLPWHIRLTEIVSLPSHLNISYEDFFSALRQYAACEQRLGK
UniProt Q5JSL3, sequence (Q5JSL3 whole entry): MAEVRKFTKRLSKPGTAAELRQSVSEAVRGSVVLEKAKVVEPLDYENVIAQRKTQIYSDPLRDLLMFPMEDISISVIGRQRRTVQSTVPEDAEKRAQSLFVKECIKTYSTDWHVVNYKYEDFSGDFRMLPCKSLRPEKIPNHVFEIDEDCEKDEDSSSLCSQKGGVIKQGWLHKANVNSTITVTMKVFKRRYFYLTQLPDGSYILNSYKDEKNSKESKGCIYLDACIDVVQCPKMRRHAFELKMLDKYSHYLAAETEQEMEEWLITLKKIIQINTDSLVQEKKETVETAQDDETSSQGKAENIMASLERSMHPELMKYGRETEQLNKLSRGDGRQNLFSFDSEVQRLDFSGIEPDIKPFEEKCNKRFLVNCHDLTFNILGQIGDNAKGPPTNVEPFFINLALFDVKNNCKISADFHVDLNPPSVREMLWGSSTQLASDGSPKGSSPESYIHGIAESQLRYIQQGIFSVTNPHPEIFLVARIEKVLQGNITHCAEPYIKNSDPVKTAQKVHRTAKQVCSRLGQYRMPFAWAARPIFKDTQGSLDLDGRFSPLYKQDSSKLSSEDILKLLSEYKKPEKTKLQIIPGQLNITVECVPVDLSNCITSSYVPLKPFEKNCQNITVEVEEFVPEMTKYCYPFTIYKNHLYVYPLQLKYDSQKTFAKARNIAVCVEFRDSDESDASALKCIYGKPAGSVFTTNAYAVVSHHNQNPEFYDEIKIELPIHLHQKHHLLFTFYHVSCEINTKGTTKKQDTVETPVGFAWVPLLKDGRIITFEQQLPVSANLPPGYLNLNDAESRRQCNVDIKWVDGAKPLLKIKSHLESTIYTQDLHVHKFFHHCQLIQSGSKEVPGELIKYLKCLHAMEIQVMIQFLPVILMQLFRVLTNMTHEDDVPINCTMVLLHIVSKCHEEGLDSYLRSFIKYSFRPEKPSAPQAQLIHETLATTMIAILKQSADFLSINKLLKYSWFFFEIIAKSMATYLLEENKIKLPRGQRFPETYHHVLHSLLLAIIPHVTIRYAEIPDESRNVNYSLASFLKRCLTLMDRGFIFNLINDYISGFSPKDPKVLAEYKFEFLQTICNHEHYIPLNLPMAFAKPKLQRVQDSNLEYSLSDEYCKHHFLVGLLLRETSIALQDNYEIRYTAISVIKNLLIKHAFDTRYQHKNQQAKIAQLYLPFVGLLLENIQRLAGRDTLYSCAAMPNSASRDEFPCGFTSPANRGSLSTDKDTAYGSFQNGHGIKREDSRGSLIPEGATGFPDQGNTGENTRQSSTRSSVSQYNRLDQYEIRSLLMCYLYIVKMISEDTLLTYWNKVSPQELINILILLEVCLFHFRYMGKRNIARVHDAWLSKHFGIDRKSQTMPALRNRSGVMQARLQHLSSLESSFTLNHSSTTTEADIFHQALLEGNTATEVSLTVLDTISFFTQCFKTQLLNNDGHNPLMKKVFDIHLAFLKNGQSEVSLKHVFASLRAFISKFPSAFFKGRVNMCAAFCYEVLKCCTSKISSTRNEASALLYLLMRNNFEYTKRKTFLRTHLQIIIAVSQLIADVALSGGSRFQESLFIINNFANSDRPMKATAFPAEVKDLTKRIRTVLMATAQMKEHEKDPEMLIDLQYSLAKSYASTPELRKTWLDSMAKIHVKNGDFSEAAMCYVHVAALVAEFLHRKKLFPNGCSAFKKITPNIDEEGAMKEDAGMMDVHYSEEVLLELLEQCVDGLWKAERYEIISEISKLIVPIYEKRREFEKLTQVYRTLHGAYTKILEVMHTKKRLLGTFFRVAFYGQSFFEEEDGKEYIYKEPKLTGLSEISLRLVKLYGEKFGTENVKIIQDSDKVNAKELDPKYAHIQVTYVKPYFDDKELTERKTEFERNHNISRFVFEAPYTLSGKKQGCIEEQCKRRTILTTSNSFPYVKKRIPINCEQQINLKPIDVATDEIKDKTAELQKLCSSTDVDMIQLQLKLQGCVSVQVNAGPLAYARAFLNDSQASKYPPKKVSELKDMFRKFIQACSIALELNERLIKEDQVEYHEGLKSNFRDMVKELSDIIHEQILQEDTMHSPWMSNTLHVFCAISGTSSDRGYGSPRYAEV
UniProt Q96NL8, sequence (Q96NL8 whole entry): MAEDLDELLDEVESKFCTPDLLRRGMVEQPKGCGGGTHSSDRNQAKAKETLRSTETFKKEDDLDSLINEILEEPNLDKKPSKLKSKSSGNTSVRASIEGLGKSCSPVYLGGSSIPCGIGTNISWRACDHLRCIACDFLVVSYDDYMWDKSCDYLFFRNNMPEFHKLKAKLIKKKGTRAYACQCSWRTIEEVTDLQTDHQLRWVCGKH
UniProt P35249, sequence (P35249 whole entry): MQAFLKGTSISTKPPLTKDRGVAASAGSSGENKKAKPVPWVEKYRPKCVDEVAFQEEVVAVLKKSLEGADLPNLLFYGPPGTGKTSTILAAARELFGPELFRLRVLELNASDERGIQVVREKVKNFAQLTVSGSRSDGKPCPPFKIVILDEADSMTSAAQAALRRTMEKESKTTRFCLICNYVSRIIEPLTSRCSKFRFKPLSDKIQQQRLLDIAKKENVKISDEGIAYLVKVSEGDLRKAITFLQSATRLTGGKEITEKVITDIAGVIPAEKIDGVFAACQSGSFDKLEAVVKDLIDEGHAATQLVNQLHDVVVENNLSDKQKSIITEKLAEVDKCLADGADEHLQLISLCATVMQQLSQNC
UniProt Q6ZSJ8, sequence (Q6ZSJ8 whole entry): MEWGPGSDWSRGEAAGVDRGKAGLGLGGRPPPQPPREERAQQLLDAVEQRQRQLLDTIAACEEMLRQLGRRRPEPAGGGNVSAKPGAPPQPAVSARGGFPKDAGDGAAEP

Each target was assayed with NC(=O)CCCCC1CCSS1 [lipoamide] (assay: thermal stability z-score vs DMSO; higher = more thermally stabilized by treatment). Conditions: HeLa; lipoamide concentration 100 µM; arsenate co-treatment: 1 mM arsenate 1 h.
Experimental: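 Cellular thermal proteome profiling in HeLa cells. Cells were treated with 100 µM lipoamide for 1 h, with or without 1 mM arsenate for a further 1 h, then heated to ten temperatures (37-66.3 °C), and soluble protein was quantified by TMT mass spectrometry relative to 0.1% DMSO controls. The thermal stability score (sum of log2 fold changes minus the abundance score) was transformed to a z-score; mean of n = 3 experiments.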
In the case of CBLB (UniProt Q13191), the thermal stability z-score is reported as 0.338.
Work on SDHA (UniProt P31040) yielded a thermal stability z-score of -0.493.
RPS23 (UniProt P62266) was tested, and the thermal stability z-score was -0.0441.
NDUFAF3 (UniProt Q9BU61) showed a thermal stability z-score of -0.122.
SERPINI1 (UniProt Q99574) gave a thermal stability z-score of -0.495.
C8ORF37 (UniProt Q96NL8) gave a thermal stability z-score of 0.385.
CCDC124 (UniProt Q96CT7) showed a thermal stability z-score of 0.0112.
For TFAP4 (UniProt Q01664), the thermal stability z-score was 0.339.
Target NUS1 (UniProt Q96E22) has a thermal stability z-score of 0.421.
UAP1 (UniProt Q16222) gave a thermal stability z-score of 0.373.
Target JUNB (UniProt P17275) has a thermal stability z-score of 0.208.
For UBE2J2 (UniProt Q8N2K1), the thermal stability z-score was -0.286.
MUT (UniProt P22033) was tested, and the thermal stability z-score was -0.252.
MARCKSL1 (UniProt P49006) was tested, and the thermal stability z-score was 0.667.
With RNF167 (UniProt Q9H6Y7) the thermal stability z-score was -0.267.
Work on FAM213A (UniProt Q9BRX8) yielded a thermal stability z-score of -0.192.
For TUBGCP6 (UniProt Q96RT7), the thermal stability z-score was 0.0893.
In the case of FOSL1 (UniProt P15407), the thermal stability z-score is reported as 0.361.
Target FAM177A1 (UniProt Q8N128) has a thermal stability z-score of -0.313.
FAM103A1 (UniProt Q9BTL3) was tested, and the thermal stability z-score was 1.17.
Work on ROBO1 (UniProt Q9Y6N7) yielded a thermal stability z-score of 0.154.
SLFN5 (UniProt Q08AF3) gave a thermal stability z-score of -0.884.
ZNF281 (UniProt Q9Y2X9) showed a thermal stability z-score of -0.165.
Target HK2 (UniProt P52789) has a thermal stability z-score of -0.636.
Work on SRSF4 (UniProt Q08170) yielded a thermal stability z-score of 1.95.
Target PANK2 (UniProt Q9BZ23) has a thermal stability z-score of 0.583.
For DOCK11 (UniProt Q5JSL3), the thermal stability z-score was -0.016.
Work on NGRN (UniProt Q9NPE2) yielded a thermal stability z-score of 0.637.
Work on SDAD1 (UniProt Q9NVU7) yielded a thermal stability z-score of 0.0663.
SIRT1 (UniProt Q96EB6) showed a thermal stability z-score of -0.368.
In the case of TMX2 (UniProt Q9Y320), the thermal stability z-score is reported as -1.05.
With CSDE1 (UniProt O75534) the thermal stability z-score was -0.138.
ESYT1 (UniProt Q9BSJ8) gave a thermal stability z-score of -0.86.
Work on RFC4 (UniProt P35249) yielded a thermal stability z-score of -0.184.
Work on AGRN (UniProt O00468) yielded a thermal stability z-score of -0.718.
Target AHNAK (UniProt Q09666) has a thermal stability z-score of 1.35.

Same assay, conditions: HeLa; lipoamide concentration 100 µM; arsenate co-treatment: none
With RPP30 (UniProt P78346) the thermal stability z-score was -0.668.
Work on UBASH3B (UniProt Q8TF42) yielded a thermal stability z-score of -0.103.
In the case of ATRAID (UniProt Q6UW56), the thermal stability z-score is reported as -2.55.
INF2 (UniProt Q27J81) was tested, and the thermal stability z-score was -0.257.
For SUZ12 (UniProt Q15022), the thermal stability z-score was -0.101.
Work on PCYT2 (UniProt Q99447) yielded a thermal stability z-score of -0.0669.
Work on ACO2 (UniProt Q99798) yielded a thermal stability z-score of -0.402.
Target FBXO7 (UniProt Q9Y3I1) has a thermal stability z-score of -0.573.
Target RPL22L1 (UniProt Q6P5R6) has a thermal stability z-score of -0.537.
PDLIM5 (UniProt Q96HC4) gave a thermal stability z-score of -0.371.
Target SLC33A1 (UniProt O00400) has a thermal stability z-score of 1.25.
Target UBE2K (UniProt P61086) has a thermal stability z-score of -0.0311.
FAM195A (UniProt Q9BUT9) gave a thermal stability z-score of 0.202.
DNAJC21 (UniProt Q5F1R6) was tested, and the thermal stability z-score was -0.205.
Work on LASP1 (UniProt Q14847) yielded a thermal stability z-score of 0.383.
With EIF1AX (UniProt P47813) the thermal stability z-score was 0.0406.
In the case of WDR89 (UniProt Q96FK6), the thermal stability z-score is reported as 1.2.
In the case of BLOC1S2 (UniProt Q6QNY1), the thermal stability z-score is reported as 1.1.
For WDR45 (UniProt Q9Y484), the thermal stability z-score was 0.11.
In the case of ACP1 (UniProt P24666), the thermal stability z-score is reported as -0.0266.
For SPNS1 (UniProt Q9H2V7), the thermal stability z-score was 0.677.
For MED23 (UniProt Q9ULK4), the thermal stability z-score was -0.269.
CARHSP1 (UniProt Q9Y2V2) gave a thermal stability z-score of 0.812.
GLRX3 (UniProt O76003) showed a thermal stability z-score of 0.465.
CGGBP1 (UniProt Q9UFW8) showed a thermal stability z-score of -0.574.
For SMC2 (UniProt O95347), the thermal stability z-score was 0.546.
In the case of C1ORF122 (UniProt Q6ZSJ8), the thermal stability z-score is reported as 1.18.
ATXN2L (UniProt Q8WWM7) showed a thermal stability z-score of 0.347.
Work on DTWD1 (UniProt Q8N5C7) yielded a thermal stability z-score of -0.205.
Work on CHM (UniProt P24386) yielded a thermal stability z-score of 0.152.
Work on JADE3 (UniProt Q92613) yielded a thermal stability z-score of 0.143.
PRKD2 (UniProt Q9BZL6) was tested, and the thermal stability z-score was -0.0785.
Work on PANK4 (UniProt Q9NVE7) yielded a thermal stability z-score of -0.303.
Work on PDE4D (UniProt Q08499) yielded a thermal stability z-score of 0.623.
Work on SET (UniProt Q01105) yielded a thermal stability z-score of 0.00988.
CBLB (UniProt Q13191) was tested, and the thermal stability z-score was -0.251.
In the case of SDHA (UniProt P31040), the thermal stability z-score is reported as -0.532.
In the case of RPS23 (UniProt P62266), the thermal stability z-score is reported as 0.207.
In the case of NDUFAF3 (UniProt Q9BU61), the thermal stability z-score is reported as -0.105.
For SERPINI1 (UniProt Q99574), the thermal stability z-score was 0.0132.
Work on C8ORF37 (UniProt Q96NL8) yielded a thermal stability z-score of 0.235.
CCDC124 (UniProt Q96CT7) was tested, and the thermal stability z-score was -0.0241.
For TFAP4 (UniProt Q01664), the thermal stability z-score was 0.809.
NUS1 (UniProt Q96E22) showed a thermal stability z-score of 0.252.
In the case of UAP1 (UniProt Q16222), the thermal stability z-score is reported as 0.0722.
JUNB (UniProt P17275) was tested, and the thermal stability z-score was 0.791.
UBE2J2 (UniProt Q8N2K1) was tested, and the thermal stability z-score was -0.461.
Work on MUT (UniProt P22033) yielded a thermal stability z-score of -0.48.
Target MARCKSL1 (UniProt P49006) has a thermal stability z-score of 0.788.
RNF167 (UniProt Q9H6Y7) gave a thermal stability z-score of -0.216.
With FAM213A (UniProt Q9BRX8) the thermal stability z-score was -0.476.
Work on TUBGCP6 (UniProt Q96RT7) yielded a thermal stability z-score of 0.0666.
Work on FOSL1 (UniProt P15407) yielded a thermal stability z-score of -0.0186.
Work on FAM177A1 (UniProt Q8N128) yielded a thermal stability z-score of -0.584.
FAM103A1 (UniProt Q9BTL3) was tested, and the thermal stability z-score was 0.62.
With ROBO1 (UniProt Q9Y6N7) the thermal stability z-score was 0.0459.
SLFN5 (UniProt Q08AF3) was tested, and the thermal stability z-score was -1.21.
Work on ZNF281 (UniProt Q9Y2X9) yielded a thermal stability z-score of -0.214.
HK2 (UniProt P52789) showed a thermal stability z-score of -0.168.
Target SRSF4 (UniProt Q08170) has a thermal stability z-score of 1.28.
For PANK2 (UniProt Q9BZ23), the thermal stability z-score was 0.588.
In the case of DOCK11 (UniProt Q5JSL3), the thermal stability z-score is reported as 0.0791.
NGRN (UniProt Q9NPE2) showed a thermal stability z-score of 0.0666.
SDAD1 (UniProt Q9NVU7) gave a thermal stability z-score of -0.0856.
In the case of SIRT1 (UniProt Q96EB6), the thermal stability z-score is reported as -0.379.
TMX2 (UniProt Q9Y320) showed a thermal stability z-score of -2.85.
In the case of CSDE1 (UniProt O75534), the thermal stability z-score is reported as 0.281.
Work on ESYT1 (UniProt Q9BSJ8) yielded a thermal stability z-score of -0.642.
Work on RFC4 (UniProt P35249) yielded a thermal stability z-score of -0.331.
Work on AGRN (UniProt O00468) yielded a thermal stability z-score of -1.6.
AHNAK (UniProt Q09666) showed a thermal stability z-score of 1.69.
